The structures appear in SMILES notation.

For one assay, the system named is DU145. The experiment in a line: In vitro cytotoxicity, CCK-8 assay. Type of assay: cell-based. Conditions: Homo sapiens, DU-145; DU145 cells, CCK-8, mean ± SD of three trials. Here is the method: (§1) PC-3 and WPMY-1 cells were cultured in Dulbecco’s modiffcation Eagle’s medium (DMEM, Invitrogen, Carlsbad, CA, United States) supplemented with 10% fetal bovine serum (FBS, Hyclone, Logan, UT, United States), 100 U/mL penicillin and 0.1 mg/mL streptomycin (Invitrogen). DU145 cells were cultured in RPMI1640 media supplemented with 10% fetal bovine serum (FBS, Hyclone), 100 U/mL penicillin and 0.1 mg/mL streptomycin (Invitrogen). LNCaP cells were cultured in F12 media supplemented with 10% fetal bovine serum (FBS, Hyclone), 100 U/mL penicillin and 0.1 mg/mL streptomycin (Invitrogen). The cells were incubated at 37°C in a humidified atmosphere with 5% CO2([Chen et al., 2025]; [Jiang et al., 2024]). […]
(§2) The compound concentrations were set at 30, 15, 7.5, 3.75, 1.88, and 0.94 μmol/L. The absorbance (A) was measured at 450 nm using a microplate reader. […] All experiments were repeated three times under identical conditions, and the mean value was taken as the final result.
(§3) The cytotoxic activity of derivatives 5–24 against three human prostate cancer cell lines (PC-3, LNCaP, and DU145) and one type of human normal prostate epithelial cells was evaluated using the CCK-8 method.
A general note: Tetrazolium assays rely on reduction of a dye to a coloured formazan, in cell work by metabolically active cells.

In the next assay the test system is WPMY-1. The assay can be described thus: In vitro cytotoxicity, CCK-8 assay (normal prostatic epithelial cells). Type of assay: cell-based. To be noted: Homo sapiens; WPMY-1 normal prostatic epithelial cells, CCK-8, mean ± SD of three trials. How it is done: as §1, §2, §3
Another assay addresses T1, AR (Homo sapiens, UniProt P10275).
T1 sequence (P10275 1-920): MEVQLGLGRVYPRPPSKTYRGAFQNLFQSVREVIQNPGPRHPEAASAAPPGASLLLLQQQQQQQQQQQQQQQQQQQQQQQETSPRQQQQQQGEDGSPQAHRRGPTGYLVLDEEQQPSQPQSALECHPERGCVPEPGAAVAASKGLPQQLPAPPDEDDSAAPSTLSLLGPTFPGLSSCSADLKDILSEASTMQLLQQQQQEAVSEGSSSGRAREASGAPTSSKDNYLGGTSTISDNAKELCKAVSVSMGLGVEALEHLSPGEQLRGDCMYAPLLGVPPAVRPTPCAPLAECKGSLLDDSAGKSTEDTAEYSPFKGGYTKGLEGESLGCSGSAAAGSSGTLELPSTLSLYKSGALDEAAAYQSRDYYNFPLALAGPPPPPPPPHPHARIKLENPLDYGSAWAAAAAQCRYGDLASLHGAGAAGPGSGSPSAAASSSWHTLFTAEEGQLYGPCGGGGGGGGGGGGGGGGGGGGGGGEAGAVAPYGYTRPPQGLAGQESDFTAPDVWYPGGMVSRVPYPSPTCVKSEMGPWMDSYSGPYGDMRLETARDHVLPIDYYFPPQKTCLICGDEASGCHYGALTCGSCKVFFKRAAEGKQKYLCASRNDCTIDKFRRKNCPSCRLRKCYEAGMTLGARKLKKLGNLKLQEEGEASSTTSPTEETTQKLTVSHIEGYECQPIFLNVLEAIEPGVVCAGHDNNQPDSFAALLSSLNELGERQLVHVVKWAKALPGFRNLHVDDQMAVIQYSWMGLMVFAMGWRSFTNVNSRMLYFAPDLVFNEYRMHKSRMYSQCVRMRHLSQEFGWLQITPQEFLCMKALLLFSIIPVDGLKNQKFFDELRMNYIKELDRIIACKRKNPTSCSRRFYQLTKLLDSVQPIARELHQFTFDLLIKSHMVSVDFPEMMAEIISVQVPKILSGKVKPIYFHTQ
The experiment in a line: AR reporter gene (luciferase) assay, co-treatment with 1 nM R1881. The format is cell-based. Conditions: 10 μM compound, inhibition rate as ratio to R1881 control, read-out: AR antagonistic activity% (10 μM). How it is done:
RLUs were measured using a luminometer (GloMaxTM 96-Microplate Luminometer, Promega) and are reported as the mean ± SEM of three individual experiments. For agonists, fold of induction = LUinduced/RLUuninduced. For antagonists, % of control = 100 × RLU (agonist + antagonist)/RLU (agonist alone). All RLUs were normalized against ffreffy RLUs/Renilla RLUs. Data are expressed as EC50/IC50 values in μM, and the IC50 of […] (μM) was calculated by plotting the data using nonlinear regression analysis in Graph-Pad Prism 5 software.
(In general: Reporter assays use an easily measured gene product as a stand-in for the process of interest.)

For the next assay, the system named is LNCaP. The experiment in a line: In vitro cytotoxicity, CCK-8 assay. Type of assay: cell-based, human. To be noted: LNCaP cells, CCK-8, mean ± SD of three trials. How it is done: PC-3 and WPMY-1 cells were cultured in Dulbecco’s modiffcation Eagle’s medium (DMEM, Invitrogen, Carlsbad, CA, United States) supplemented with 10% fetal bovine serum (FBS, Hyclone, Logan, UT, United States), 100 U/mL penicillin and 0.1 mg/mL streptomycin (Invitrogen). DU145 cells were cultured in RPMI1640 media supplemented with 10% fetal bovine serum (FBS, Hyclone), 100 U/mL penicillin and 0.1 mg/mL streptomycin (Invitrogen). LNCaP cells were cultured in F12 media supplemented with 10% fetal bovine serum (FBS, Hyclone), 100 U/mL penicillin and 0.1 mg/mL streptomycin (Invitrogen). The cells were incubated at 37°C in a humidified atmosphere with 5% CO2([Chen et al., 2025]; [Jiang et al., 2024]).
The proliferative capacity of cells was evaluated through the implementation of a Cell Counting Kit-8 (CCK-8) assay, supplied by Dojindo (Japan), to quantify cellular growth. Post-transfection, cells were dispensed into a 96-well microplate at a density of 3 × 10^3 cells per well and incubated for intervals of 0, 24, 48, 72, 96, and 120 h. Following this, 10 μL of the CCK-8 solution was introduced into each well and the plates were returned to the incubator for an additional 2-h period at 37°C under 5% CO2 conditions. Absorbance readings at 450 nm were subsequently taken using an ELISA reader manufactured by Bio Tek (United States) ([Chen et al., 2022]; [Zhou et al., 2024]).
as §2, §3

Another assay addresses T2, AR-LBD (GST) (Rattus norvegicus, UniProt P15207).
T2 sequence (P15207 651-882 limits assumed): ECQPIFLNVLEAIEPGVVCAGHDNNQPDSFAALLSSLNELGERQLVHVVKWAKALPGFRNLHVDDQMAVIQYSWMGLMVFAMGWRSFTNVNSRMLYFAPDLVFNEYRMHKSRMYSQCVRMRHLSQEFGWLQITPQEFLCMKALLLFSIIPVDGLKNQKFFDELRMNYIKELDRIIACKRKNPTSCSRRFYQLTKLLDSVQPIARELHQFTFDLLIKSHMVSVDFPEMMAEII
The experiment in a line: Fluorescence polarization, PolarScreen AR Competitor Assay, Green. Background: Fluorescence polarisation rises when a labelled molecule tumbles more slowly, as on binding a larger partner.

Another assay concerns PC-3. The experiment in a line: In vitro cytotoxicity, CCK-8 assay. Type of assay: cell-based, human. To be noted: CCK-8, mean ± SD of three trials. Here is the method: as §1, §2, §3

Experimental for AR-LBD (GST): Brieffy, the assay entails titration of the test compound against a preformed complex of Fluormone™AL Green and the AR-LBD (GST). […] Data analysis for the ligand binding assays was performed using Prism software (GraphPad Software, Inc.).

Consider `Clc1cc(Cl)cc(OCCc2ccc(CN3CCN(C(c4ccccc4)c4ccccc4)CC3)cc2)c1` [Compound 11, 1-benzhydryl-4-(4-(2-(3,5-dichlorophenoxy)ethyl)benzyl)piperazine], for which the concentration for half-maximal inhibition (IC50) (in general, the concentration that gives 50% inhibition) in the assay with DU145 is 17.43 ± 0.04 µM; in the assay with WPMY-1, above 50 µM; with LNCaP (Homo sapiens, LNCaP), above 50 µM; at AR-LBD (GST) it was 2.01 ± 0.15 µM. The activity at 10 µM on AR amounted to 51.2 ± 1.3%.

For the molecule `FC(F)(F)c1ccc(OCCc2ccc(CN3CCN(C(c4ccccc4)c4ccccc4)CC3)cc2)cc1` [Compound 24, 1-benzhydryl-4-(4-(2-(4-(trifluoromethyl)phenoxy)ethyl)benzyl)piperazine], the concentration for half-maximal inhibition (IC50) in the assay on DU145 was 5.76 ± 0.14 µM; in the assay on WPMY-1, above 50 µM; in the assay on LNCaP (Homo sapiens, LNCaP), 14.6 ± 0.18 µM; at AR-LBD (GST), 2.87 ± 0.22 µM; with PC-3 (Homo sapiens, PC-3, PC-3 cells) it was below 5 µM; in the assay with PC-3 (PC-3 cells) it was 3.94 ± 0.14 µM. At AR, the activity at 10 µM stood at 47.3 ± 0.6%.

For `Cc1cc(C)cc(OCCc2ccc(CN3CCN(C(c4ccccc4)c4ccccc4)CC3)cc2)c1` [Compound 7, 1-benzhydryl-4-(4-(2-(3,5-dimethylphenoxy)ethyl)benzyl)piperazine], the IC50 with DU145 is 24.76 ± 0.21 µM; in the assay with WPMY-1 it was above 50 µM; in the assay on LNCaP (Homo sapiens, LNCaP), above 50 µM; on AR-LBD (GST), 2.15 ± 0.13 µM; in the assay with PC-3 (Homo sapiens, PC-3, PC-3 cells), below 5 µM; in the assay on PC-3 (PC-3 cells), 2.95 ± 0.04 µM. Further, on AR, the activity at 10 µM stood at 50.1 ± 1.1%.

Turning to `c1ccc(C(c2ccccc2)N2CCN(Cc3ccc(CCOc4cccc5ccccc45)cc3)CC2)cc1` [Compound 22, 1-benzhydryl-4-(4-(2-(naphthalen-1-yloxy)ethyl)benzyl)piperazine], the IC50 with DU145 amounted to 15.76 ± 0.09 µM; in the assay on WPMY-1, 33.16 ± 0.15 µM; with LNCaP (Homo sapiens, LNCaP), 6.78 ± 0.14 µM; on AR-LBD (GST), 3.02 ± 0.24 µM; in the assay on PC-3 (Homo sapiens, PC-3, PC-3 cells), 10.1 ± 0.17 µM. For the same molecule, the activity at 10 µM at AR came out at 40.3 ± 1.2%.

On to `Clc1ccc(OCCc2ccc(CN3CCN(C(c4ccccc4)c4ccccc4)CC3)cc2)cc1` [Compound 21, 1-benzhydryl-4-(4-(2-(4-chlorophenoxy)ethyl)benzyl)piperazine], for which the IC50 in the assay on DU145 is 13.7 ± 0.14 µM; in the assay with WPMY-1, 28.65 ± 0.13 µM; in the assay with LNCaP (Homo sapiens, LNCaP), 16.09 ± 0.12 µM; on AR-LBD (GST) it was 2.74 ± 0.16 µM; in the assay on PC-3 (Homo sapiens, PC-3, PC-3 cells), below 5 µM; in the assay with PC-3 (PC-3 cells), 2.83 ± 0.21 µM. Moreover, the activity at 10 µM at AR turned out to be 49.4 ± 0.8%.

Consider `Brc1ccc(OCCc2ccc(CN3CCN(C(c4ccccc4)c4ccccc4)CC3)cc2)cc1` [Compound 23, 1-benzhydryl-4-(4-(2-(4-bromophenoxy)ethyl)benzyl)piperazine], for which the half-inhibitory concentration (IC50) is 1.42 ± 0.11 µM with DU145; above 50 µM with WPMY-1; below 5 µM in the assay with LNCaP (Homo sapiens, LNCaP); 3.86 ± 0.13 µM in the assay with LNCaP; 1.72 ± 0.12 µM on AR-LBD (GST). For the same molecule, the activity at 10 µM on AR is above 60%.
